Measurements reported in patent publication US6111080A, “Monoclonal antibodies” (Washington University, priority 1993, dated 2000).

Test system: RGD-binding receptor on PMN (B6H12 antigen, heterodimer of 140 kd and 105 kd)
Assay: Cytochrome c-RGDS binding assay (inhibition of 125I-cc-RGDS specific binding to PMN)
Set-up: species or system human
Conditions: unlabelled inhibitor 500 μg/ml; 40 μg 125I-cc-RGDS, 1.0 × 10^6 PMN, 5,000 units catalase in 1 ml, 30 min at 37° C.; relative to cc-C
Experimental: Cytochrome c-RGDS was radioiodinated by chloroglycoluril [Markwell and Fox, Biochemistry 17, 4807-4817 (1978)] for 15 min at 0° C. PMN (5.0×10^5) in HBSS^++ -1% OVA were incubated with 10 μg of radiolabelled cc-RGDS in the presence of 5K U/ml of catalase and 293 μg of unlabelled cc-C in a final volume of 250 μl. The reaction mixtures were incubated in 1.5 ml Eppendorf tubes for 30 min at 37° C. The mixtures were overlayered on Versilube (General Electric) and centrifuged at 12,000×g to assess pellet associated radioactivity. Specific binding was determined by subtracting the radioactivity bound in the presence of […] of unlabelled cc-RGDS from the total radioactivity. Unlabelled cc-C was included in the reaction to control for any binding due to cytochrome c and not specifically due to the RGDS moiety. For inhibition tests, the various inhibitors were included in the reaction at the indicated concentrations. Antibodies were incubated with the PMN at the indicated concentrations for 15 min at room temperature prior to the addition of the other reactants.
^a PMN (1.0 × 10^6) were incubated with 40 μg of ^12
Icc-RGDS with the indicated concentrations of unlabelled inhibitors in th
presence of 5,000 units of catalase in 1 ml for 30 min at 37° C.
The PMN were centrifuged through oil and the pelletassociated counts
assessed. […]
^b Calculated from the mean cpm's. […]

Which “% I (percent inhibition of cc-RGDS specific binding to PMN)” value does the source give for GRGDSC here?
The value was 79.6%.
